We go through one substance from US11951131B2, “Anti-SLAMF7 chimeric antigen receptors” (The United States of America, as represented by the …, priority 2018, dated 2024).

The experiment concerns IC9-Luc90-CD828Z CAR T cells. Nature of the experiment: AP1903 abrogation of CAR T-cell activity in MM.1S tumor-bearing mice. The following applies: 2×10^6 IC9-Luc90-CD828Z T cells plus vehicle control. The experiment is classed as in vivo, NSG mice. The method, then: First, MM.1S human SLAMF7^+ multiple myeloma cell line tumors were established in immunodeficient mice. In this model, the MM.1S cells formed a solid cutaneous mass. Measurable tumors were allowed to develop over 7 days, and then the mice were treated with a single intravenous infusion of MSGV1-IC9-Luc90-CD828Z-transduced human T cells. NSG mice (NOD.Cg-Prkdc^scid Il2rg^tm1Wjl/SzJ) from The Jackson Laboratory, Bar Harbor, Me., were used. Mice received intradermal injections of 4×10^6 MM.1S cells. The cells were suspended in a 1:1 mixture of MATRIGEL™ gelatinous protein mixture (BD Biosciences) and PBS (Phosphate-buffered saline) for injection. Tumors were allowed to grow for 7 days, and then each mouse received a single intravenous infusion of human T cells that were transduced with one of 3 CARs: IC9-Luc90-CD828Z (suicide gene+anti-SLAMF7 CAR), Luc90-CD828Z (anti-SLAMF7 CAR alone), or a negative-control anti-CD19 CAR Hu19-CD828Z. A 4th group was left untreated. All groups included 5 mice. After CAR T-cell infusion, the tumors were measured with calipers every 3 days. The longest length and the length perpendicular to the longest length and the tumor thickness were multiplied together to obtain the tumor volume in mm^3. When the longest length reached 15 mm, mice were sacrificed. Animal studies were approved by the National Cancer Institute Animal Care and Use Committee.
MM.1S tumors were established in NSG mice as described in Example 9. The mice were treated with 2×10^6 IC9-Luc90-CD828Z T cells. The mice received 5 mg/kg of AP1903 intraeritoneally for either 3 days or 12 days after the CAR T-cell infusion. […] Also levels of IC9-Luc90-CD828Z CART cells in the mice receiving AP1903 were reduced as compared to the mice receiving the vehicle.

Consider “IC9-Luc90-CD828Z: CAR plus suicide gene construct (SEQ ID NO: 31): IC9 suicide gene 5′ to the CAR, T2A, Luc90-CD828Z”, for which the “tumor outcome in mice receiving vehicle instead of AP1903” value is listed as “tumor elimination”.
